Earlier results as cited in patent publication US20070072885A1, “BICYCLIC DERIVATIVES FOR THE TREATMENT OF ABNORMAL CELL GROWTH” (Pfizer Inc, priority 2005, published 2007).

Experiments:
[1] = test system: another carcinoma which does not express the EGF receptor
[2] = test system: transplanted human mammary carcinoma which expresses epidermal growth factor receptor tyrosine kinase (EGFR); conditions: EGFR-expressing carcinoma in athymic nude mice

O=CN/C=C/c1cc(O)ccc1O [erbstatin]
growth of another carcinoma [1]: without effect | growth of transplanted human mammary carcinoma [2]: selectively attenuates the growth
